Experimental data published in US20260146236A1, “HUMAN SEBACEOUS GLAND CARCINOMA CELL LINE AND US THEREOF” (SHANGHAI NINTH PEOPLE'S HOSPITAL, SHANGHAI JIAOTONG …, priority 2023, published 2026).
pEC50: −log10 of the molar value. Like-named read-outs stand apart in the source and are kept apart here.

Tests used:
[1] = system: sebaceous gland carcinoma cell line BP50 without a TP53 mutation; conditions: BP50 cells without a TP53 mutation, previously reported; cited from earlier work
[2] = system: sebaceous gland carcinoma cell line SHNPH-SeC; experiment: Drug sensitivity test of SHNPH-SeC cells (CCK-8 cell viability); format: cell-based, human; conditions: 48 h, cell viability by CCK-8, read-out: Half-maximal effective concentration (EC50)
Method: Cells in a logarithmic growth phase were harvested and prepared into a cell suspension at a concentration of 2×10^4 cells/mL. The cell suspension was inoculated into a 96-well plate at 100 μL/well. The cell proliferation in the 96-well plate was measured by the CCK-8 method on day 0, day 1, day 2, day 3, and day 4. The CCK-8 method was performed according to instructions of a kit. Specifically, a sample was incubated with 10 μL of a CCK-8 solution for 2 h in a 37° C. and 5% CO2 incubator, and an OD value was then measured at 450 nm. As shown in the growth curve of FIG. 3A, the sebaceous gland carcinoma cell line SHNPH-SeC required a doubling time of approximately 36 h, indicating a strong proliferative capacity.
Cells in a logarithmic growth phase were collected and prepared into a cell suspension with a concentration of 2×10^4 cells/mL. […] When a cell density reached approximately 80%, MMC was added to each well at concentrations of 0 μmol/L, 0.15625 μmol/L, 0.3125 μmol/L, 0.625 μmol/L, 1.25 μmol/L, 2.5 μmol/L, 5 μmol/L, 10 μmol/L, and 20 μmol/L or 5-FU was added to each well at concentrations of 0 μmol/L, 5 μmol/L, 10 μmol/L, 20 μmol/L, 40 μmol/L, 80 μmol/L, 160 μmol/L, 320 μmol/L, and 640 μmol/L. 48 h later, a cell viability in each well was detected by the CCK-8 method, with a specific process as described in section 2.3. […]

Compound | pEC50 [1] | pEC50 [2] | pEC50 ([2]; Homo sapiens)
CO[C@@]12[C@H](COC(N)=O)C3=C(C(=O)C(C)=C(N)C3=O)N1C[C@@H]1N[C@@H]12 [MMC, mitomycin C] | 4.98 | 5.95 | –
O=c1[nH]cc(F)c(=O)[nH]1 [5-FU, 5-fluorouracil] | – | – | 4.08
